In publication PMC6961116, “Scaffold-hopping identifies furano[2,3-d]pyrimidine amides as potent Notum inhibitors” (Bioorganic & Medicinal Chemistry Letters, 2020):
Where “and” joins values, the source holds several entries; their conditions need not be identical. Equal entries are not always repeated. Where two headings read alike, the source gives them in different places. One block for each compound: values may come before it.

Legend:
[1] = mouse liver microsomes; amides 4; cited from earlier work
MDCK-MDR1 monolayer = settings: amides 4, cited from earlier work
Notum(81–451 Cys330Ser) = biological target: T1, Notum(81–451 Cys330Ser) (Homo sapiens, UniProt Q6P988, C330S); experiment: Notum biochemical OPTS assay (carboxylesterase activity); settings: OPTS substrate, 1 h incubation; geometric mean ± s.d.
T1 sequence (Q6P988 81-451 C330S): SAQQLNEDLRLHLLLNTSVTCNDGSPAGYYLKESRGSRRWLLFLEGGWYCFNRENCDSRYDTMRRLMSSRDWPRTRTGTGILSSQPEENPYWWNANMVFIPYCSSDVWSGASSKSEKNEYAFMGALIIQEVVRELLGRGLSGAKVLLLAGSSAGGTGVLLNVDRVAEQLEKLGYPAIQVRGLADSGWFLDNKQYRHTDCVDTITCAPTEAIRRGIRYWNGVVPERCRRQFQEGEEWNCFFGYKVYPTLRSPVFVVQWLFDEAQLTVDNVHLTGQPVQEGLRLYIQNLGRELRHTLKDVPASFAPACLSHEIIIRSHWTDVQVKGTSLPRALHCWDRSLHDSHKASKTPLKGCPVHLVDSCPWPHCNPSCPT

[2] = Hydrolytic stability in citrate buffer; type: physicochemical; settings: citrate buffer 0.1 M, pH 4, up to 24 h, UPLC-MS
LogD7.4 = type: physicochemical; settings: pH 7.4
Aqueous solubility = type: physicochemical; settings: read-out: Aq. solubility
[3] = Mouse pharmacokinetics, single oral dose; type: in vivo; settings: p.o. 10 mg/kg
Method: At this point, mouse pharmacokinetic data for 5l was generated in vivo to determine the extent of plasma exposure and to check the correlation of the in vitro ADME data with in vivo outcomes.
Animal Testing Declaration: In vivo mouse pharmacokinetic data was generated at GVK Biosciences, Hyderabad, India. GVK Biosciences is accredited by AAALAC and OLAW for the ethical treatment of animals. All the animal experiments are conducted in accordance with IAEC approved protocols. See: https://www.gvkbio.com/biology-services/in-vivo-pharmacology/

P-gp (MDR1) = experiment: MDCK-MDR1 cell permeability and efflux; type: in vitro ADME; settings: dog
Notum = biological target: T2, Notum (Homo sapiens, UniProt Q6P988, C330S); experiment: Notum enzymatic stability (biochemical assay without OPTS substrate); settings: up to 72 h
T2 sequence (Q6P988 81-451 C330S): T1 sequence (Q6P988 81-451 C330S)

CYP2C9 = CYP2C9 (Homo sapiens, UniProt P11712); experiment: CYP2C9 inhibition; type: in vitro ADME
Chain of CYP2C9 (P11712 whole entry): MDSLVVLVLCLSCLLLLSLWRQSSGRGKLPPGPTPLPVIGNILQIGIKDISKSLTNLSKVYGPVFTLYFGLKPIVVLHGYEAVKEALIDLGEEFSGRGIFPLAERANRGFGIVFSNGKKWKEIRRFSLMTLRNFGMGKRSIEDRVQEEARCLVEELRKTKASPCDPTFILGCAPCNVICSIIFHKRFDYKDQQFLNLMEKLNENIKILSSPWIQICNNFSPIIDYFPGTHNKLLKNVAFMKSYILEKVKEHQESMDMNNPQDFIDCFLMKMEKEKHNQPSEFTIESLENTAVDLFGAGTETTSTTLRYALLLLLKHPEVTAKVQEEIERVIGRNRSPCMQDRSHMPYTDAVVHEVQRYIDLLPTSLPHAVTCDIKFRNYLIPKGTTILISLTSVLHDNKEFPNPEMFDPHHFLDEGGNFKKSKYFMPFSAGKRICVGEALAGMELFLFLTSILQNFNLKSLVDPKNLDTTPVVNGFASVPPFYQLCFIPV

CYP2B6 = biological target: T3, CYP2B6 (Homo sapiens, UniProt P20813); experiment: CYP2B6 inhibition; type: in vitro ADME
T3 sequence (P20813 1-491): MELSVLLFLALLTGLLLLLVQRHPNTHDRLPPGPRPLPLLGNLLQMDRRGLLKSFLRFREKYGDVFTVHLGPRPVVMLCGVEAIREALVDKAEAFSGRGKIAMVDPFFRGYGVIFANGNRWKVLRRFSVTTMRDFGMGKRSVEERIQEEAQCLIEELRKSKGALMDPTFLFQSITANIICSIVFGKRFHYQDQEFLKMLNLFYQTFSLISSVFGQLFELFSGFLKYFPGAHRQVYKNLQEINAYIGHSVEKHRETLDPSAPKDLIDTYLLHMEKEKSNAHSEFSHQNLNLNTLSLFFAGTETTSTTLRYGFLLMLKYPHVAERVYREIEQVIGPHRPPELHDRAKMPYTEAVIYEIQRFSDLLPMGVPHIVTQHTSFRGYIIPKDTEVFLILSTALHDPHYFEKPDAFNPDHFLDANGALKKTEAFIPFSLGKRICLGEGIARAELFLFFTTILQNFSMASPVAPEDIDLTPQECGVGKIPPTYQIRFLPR

Mouse plasma stability = type: in vitro ADME
Text: However, the ER for 24 was perceived to be within acceptable limits based on established precedent.[22] [table]

[4] = Metabolic stability in mouse liver microsomes (MLM); type: in vitro ADME
CYP1A2 = biological target: T4, CYP1A2 (Homo sapiens, UniProt P05177); experiment: CYP1A2 inhibition; type: in vitro ADME
T4 sequence (P05177 1-516): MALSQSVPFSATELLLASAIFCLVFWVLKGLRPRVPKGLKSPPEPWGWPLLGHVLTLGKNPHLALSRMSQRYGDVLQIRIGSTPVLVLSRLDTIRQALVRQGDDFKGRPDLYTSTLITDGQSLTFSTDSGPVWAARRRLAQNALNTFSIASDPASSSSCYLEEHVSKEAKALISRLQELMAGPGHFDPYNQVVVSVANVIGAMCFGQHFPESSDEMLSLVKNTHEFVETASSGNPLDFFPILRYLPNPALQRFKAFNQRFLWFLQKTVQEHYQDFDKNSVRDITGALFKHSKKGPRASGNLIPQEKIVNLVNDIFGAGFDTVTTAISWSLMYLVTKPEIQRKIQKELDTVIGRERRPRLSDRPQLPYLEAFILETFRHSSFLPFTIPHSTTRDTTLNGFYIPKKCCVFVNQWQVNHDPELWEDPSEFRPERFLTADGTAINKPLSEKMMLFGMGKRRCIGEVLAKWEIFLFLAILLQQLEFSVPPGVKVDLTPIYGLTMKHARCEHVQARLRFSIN

CYP2D6 = CYP2D6 (Homo sapiens, UniProt P10635); experiment: CYP2D6 inhibition; type: in vitro ADME
Chain of CYP2D6 (P10635 whole entry): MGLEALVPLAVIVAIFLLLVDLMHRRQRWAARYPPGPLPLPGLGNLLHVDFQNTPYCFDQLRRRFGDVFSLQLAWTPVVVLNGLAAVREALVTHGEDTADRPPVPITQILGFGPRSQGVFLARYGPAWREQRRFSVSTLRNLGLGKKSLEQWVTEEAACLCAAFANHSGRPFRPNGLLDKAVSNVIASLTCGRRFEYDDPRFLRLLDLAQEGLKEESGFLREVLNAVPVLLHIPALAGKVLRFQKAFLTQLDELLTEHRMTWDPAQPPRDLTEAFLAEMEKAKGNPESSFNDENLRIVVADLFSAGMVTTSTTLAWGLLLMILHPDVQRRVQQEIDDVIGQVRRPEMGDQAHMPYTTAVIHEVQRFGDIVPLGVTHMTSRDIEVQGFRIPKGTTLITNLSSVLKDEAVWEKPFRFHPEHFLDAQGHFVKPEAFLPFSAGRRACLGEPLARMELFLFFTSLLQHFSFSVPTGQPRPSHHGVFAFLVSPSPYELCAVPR

CYP3A4 = CYP3A4 (Homo sapiens, UniProt P08684); experiment: CYP3A4 inhibition; type: in vitro ADME
Chain of CYP3A4 (P08684 whole entry): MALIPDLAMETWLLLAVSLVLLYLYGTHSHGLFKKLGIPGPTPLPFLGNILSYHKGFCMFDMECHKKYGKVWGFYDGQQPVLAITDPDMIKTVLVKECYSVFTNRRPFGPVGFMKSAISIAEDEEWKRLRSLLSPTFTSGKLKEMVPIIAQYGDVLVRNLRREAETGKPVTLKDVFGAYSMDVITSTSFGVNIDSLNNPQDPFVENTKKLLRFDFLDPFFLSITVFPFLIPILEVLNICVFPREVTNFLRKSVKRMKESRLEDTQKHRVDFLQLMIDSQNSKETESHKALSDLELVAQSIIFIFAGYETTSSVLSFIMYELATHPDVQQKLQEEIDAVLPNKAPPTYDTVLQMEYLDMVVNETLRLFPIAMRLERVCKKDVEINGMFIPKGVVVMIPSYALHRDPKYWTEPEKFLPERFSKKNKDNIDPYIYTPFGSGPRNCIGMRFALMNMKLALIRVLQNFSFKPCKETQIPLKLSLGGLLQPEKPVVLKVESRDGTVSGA

[5] = C57BL/6, mouse, po, plasma, male C57BL6 mice
[6] = C57BL/6, mouse, po, brain, male C57BL6 mice

SMILES: O=C(CSc1ncnc2c(C3CC3)c(Cl)sc12)N1CCOCC1 [Compound 4c]
MLM Cli [1]: >500 µL/min/mg
MDCK-MDR1 AB Papp (MDCK-MDR1 monolayer; A to B direction): 400 nm/s
MDCK-MDR1 BA Papp (MDCK-MDR1 monolayer; B to A direction): 380 nm/s

IC50 (Notum(81–451 Cys330Ser)): 0.0024 ± 0.0004 µM
Hydrolytic stability [2]: only parent was detected
logD (LogD7.4): 1.8
solubility (Aqueous solubility): 77 µg/mL and 215 µM
Cmax [3, 5]: 0.12 µg/mL
AUC(0-inf) ([3]; C57BL/6, mouse, po, plasma, male C57BL6 mice, read-out: AUC(0-inf)): 0.07 µg·h/mL
Papp (P-gp (MDR1); MDCK-MDR1, A to B direction, read-out: MDCK-MDR1 AB Papp): 360 nm/s
Papp (P-gp (MDR1); MDCK-MDR1, B to A direction, read-out: MDCK-MDR1 BA Papp): 420 nm/s
Notum enzymatic stability (Notum): only parent was detected
SMILES: Cc1sc2ncnc(SCC(=O)N3CC(=O)N(C)C3)c2c1Cl [Compound 5l]

IC50 (CYP2C9): > 30 µM
IC50 (CYP2B6): > 30 µM
solubility (Aqueous solubility): 45 µg/mL and 120 µM
Cmax at 24 h [3, 6]: 1210 ng/g
Tmax [3, 6]: 30 min
AUC(0-inf) at 24 h [3, 5]: 5.49 µg·h/mL
AUC(0-t) at 24 h [3, 5]: 5.39 µg·h/mL
Cmax at 24 h [3, 5]: 3.85 µg/mL
Tmax [3, 5]: 30 min
AUC(0-inf) ([3]; brain, male C57BL6 mice): 1610 ng·h/g
AUC(0-t) ([3]; brain, male C57BL6 mice): 1550 ng·h/g
Cmax[brain] (free drug) ([3]; mouse, free drug): ≈ 0.5 μM
Cmax[plasma] (free drug) ([3]; mouse, free drug): ≈ 2.2 μM
Mouse plasma stability (in words) (Mouse plasma stability; after 120 min): no degradation observed
remaining at 2 h (Mouse plasma stability; mouse, plasma, 120 min): 110%
MLM Cli ([4]; Table 5): 6.9 μL/min/mg protein
MLM Cli ([4]; mouse liver microsomes): 6.9 µL/min/mg
Metabolic stability in MLM (in words) ([4]; mouse liver microsomes): high metabolic stability
IC50 (CYP1A2): > 30 µM
IC50 (CYP2D6): > 30 µM
IC50 (CYP3A4): > 30 µM
SMILES: Cc1c(C(F)(F)F)oc2ncnc(SCC(=O)N3CC(=O)N(C)C3)c12 [Compound 24, 3-Methyl-1-(2-((5-methyl-6-(trifluoromethyl)furo[2,3-d]pyrimidinyl-4-yl)thio)acetyl)imidazolin-4-one]
